In this assay the test system is B. theta. Briefly: RNA-seq after MTX treatment. Format: cell-based, Bacteroides thetaiotaomicron. The following applies: MTX 100 μg/ml. As for the experimental part: Genomes were obtained from NCBI's GenBank Assembly database. Culture media was composed of BHI+and allowed to equilibrate in an anaerobic environment prior to use. Briefly, bacteria were cultured in BHI+at 37° C. in an anaerobic chamber. Cultures for each isolate were grown to mid-exponential (achieving an OD600˜0.5), aliquoted into triplicates, treated for 30 minutes with either DMSO or MTX 100 μg/ml, and then removed from the anaerobic chamber. […]
Total RNA was subjected to rRNA depletion using Ribo-Zero Bacterial rRNA Depletion (Illumina, catalog #: MRZB12424), following the manufacturer's protocol. […] For each sample, fastq files are available in NCBI's Sequence Read Archive (SRA), accession number PRJNA656577.
Reads were trimmed using Trimmomatic (v0.32) (Bolger, A. M., et al., (2014), Bioinformatics 30, 2114-2120), and ribosomal reads were removed using SortMeRNA (v2.1) (Kopylova, E., et al., (2012), Bioinformatics 28, 3211-3217). Reads were mapped to reference genomes using Bowtie2 (Langmead, B., and Salzberg, S. L. (2012), Nat Methods 9, 357-359) using the following options: -q, —met file, —end-to-end, —sensitive. […]

The text below walks through data of patent US20220160712A1, “METHODS OF TREATING RHEUMATOID ARTHRITIS AND FOR PREDICTING THE RESPONSE TO METHOTREXATE” (CHAN ZUCKERBERG BIOHUB, INC., priority 2020, published 2022).

For the molecule `CN(Cc1cnc2nc(N)nc(N)c2n1)c1ccc(C(=O)N[C@@H](CCC(=O)O)C(=O)O)cc1` [MTX, methotrexate], under “30 minutes, padj<0.2, DESeq”, the “genes in the transcriptome affected” value is reported as 83%. In addition, where the note is “transcripts with padj<0.2”, the “number of pathways enriched among differentially expressed transcripts” value amounted to 57 pathways.
